We go through 23 compounds from US20090170937A1, “Amino Acid Derivatives” (Proximagen Ltd., priority 2006, published 2009).

Non-standard residues stand in square brackets, D forms with d. Residues, ends and D or L forms follow the SMILES beside them. *: point of attachment. Dopa = N[C@@H](Cc1ccc(O)c(O)c1)C(=O)O; αMeF = C[C@](N)(Cc1ccccc1)C(=O)O; Aic = NC1(C(=O)O)Cc2ccccc2C1; Ac6c = NC1(C(=O)O)CCCCC1; Ac5c = NC1(C(=O)O)CCCC1; Ac4c = NC1(C(=O)O)CCC1; Ac3c = NC1(C(=O)O)CC1; Aib = CC(C)(N)C(=O)O; OcHex = C1CCC(O*)CC1; OBn = c1ccc(CO*)cc1; OiPr = CC(C)O*

For the test, the system named is 6-OHDA-lesioned rats. Briefly: Induction of rotational activity in 6-OHDA-lesioned rats. The test is classed as in vivo, Male Wistar rats. The note with it: 63.4 μmole/kg, after benserazide 10 mg/kg, active = >10 turns per 10 minutes.

As for `Cl.NC1(C(=O)N[C@@H](Cc2ccc(O)c(O)c2)C(=O)O)CCC1` [Example 20, 1-[(S)-1-Carboxy-2-(3,4-dihydroxyphenyl)-ethylcarbamoyl]-cyclobutyl-ammonium Chloride] (H-[Ac4c]-[Dopa]-OH), for the setting “p.o.”, the “duration of activity (as % of L-DOPA duration of activity)” value worked out at 37%. The same measure, in the same setting: for `COC(=O)[C@H](Cc1ccc(OC(C)=O)c(OC(C)=O)c1)NC(=O)[C@@](C)(N)Cc1ccccc1.Cl` [Example 22, (S)-1-[(S)-2-(3,4-Diacetoxyphenyl)-1-methoxycarbonylethylcarbamoyl]-1-methyl-2-phenylethylammonium Chloride] the value was 19%; for `COC(=O)[C@H](Cc1ccc(O)c(O)c1)NC(=O)C1(N)CCC1.Cl` [Example 10] (H-[Ac4c]-[Dopa]-OMe), 73%. `Cl.NC1(C(=O)N[C@@H](Cc2ccc(O)c(O)c2)C(=O)O)CCCC1` [Example 14, 1-[(S)-1-Carboxy-2-(3,4-dihydroxyphenyl)-ethylcarbamoyl]-cyclopentyl-ammonium Chloride] (H-[Ac5c]-[Dopa]-OH): the “duration of activity (as % of L-DOPA duration of activity)” value (p.o.) is 62%. In the case of `CC(=O)Oc1ccc(C[C@H](NC(=O)C(C)(C)N)C(=O)O)cc1OC(C)=O.Cl` [Example 9, 1-[(S)-1-Carboxy-2-(3,4-diacetoxyphenyl)-ethylcarbamoyl]-1-methylethyl-ammonium Chloride], the “duration of activity (as % of L-DOPA duration of activity)” value (p.o.) was found to be 45%. `CC(C)(N)C(=O)N[C@@H](Cc1ccc(O)c(O)c1)C(=O)OCc1ccccc1.Cl` [Example 3, 1-[(S)-1-Benzyloxycarbonyl-2-(3,4-dihydroxyphenyl)-ethylcarbamoyl]-1-methyl-ethylammonium Chloride] (H-[Aib]-[Dopa]-OBn): the “duration of activity (as % of L-DOPA duration of activity)” value (p.o.) amounted to 38%.

Consider `CC(C)OC(=O)[C@H](Cc1ccc(O)c(O)c1)NC(=O)C(C)(C)N.Cl` [Example 17, 1-[(S)-2-(3,4-Dihydroxyphenyl)-1-isopropoxycarbonylethylcarbamoyl]-1-methyl-ethylammonium Chloride] (H-[Aib]-[Dopa]-OiPr), for which the “duration of activity (as % of L-DOPA duration of activity)” value (p.o.) turned out to be 72%. The same measure, in the same setting: for `COC(=O)[C@H](Cc1ccc(O)c(O)c1)NC(=O)C1(N)CCCC1.Cl` [Example 7, 1-[(S)-2-(3,4-Dihydroxyphenyl)-1-methoxycarbonylethylcarbamoyl]-cyclopentyl-ammonium Chloride] (H-[Ac5c]-[Dopa]-OMe) the value was 97%; for `C[C@](N)(Cc1ccccc1)C(=O)N[C@@H](Cc1ccc(O)c(O)c1)C(=O)O.Cl` [Example 13, (S)-1-[(S)-1-Carboxy-2-(3,4-dihydroxyphenyl)-ethylcarbamoyl]-1-methyl-2-phenylethylammonium Chloride] (H-[αMeF]-[Dopa]-OH), 40%. For the compound `COC(=O)[C@H](Cc1ccc(O)c(O)c1)NC(=O)C(C)(C)N.Cl` [Example 1, 1-[(S)-2-(3,4-Dihydroxyphenyl)-1-methoxycarbonylethylcarbamoyl]-1-methyl-ethylammonium Chloride] (H-[Aib]-[Dopa]-OMe), the “duration of activity (as % of L-DOPA duration of activity)” value (i.p.) is 63%. Turning to `CC(C)CCOC(=O)[C@H](Cc1ccc(O)c(O)c1)NC(=O)C(C)(C)N.Cl` [Example 23, 1-[(S)-2-(3,4-Dihydroxyphenyl)-1-(3-methylbutoxycarbonyl)-ethylcarbamoyl]-1-methylethylammonium Chloride], under “p.o.”, the “duration of activity (as % of L-DOPA duration of activity)” value stood at 49%. In the case of `CC(C)(N)C(=O)N[C@@H](Cc1ccc(O)c(O)c1)C(=O)O.Cl` [Example 6, 1-[(S)-1-Carboxy-2-(3,4-dihydroxyphenyl)-ethylcarbamoyl]-1-methylethyl-ammonium Chloride] (H-[Aib]-[Dopa]-OH), where the note is “p.o.”, the “duration of activity (as % of L-DOPA duration of activity)” value is given as 57%. For `COC(=O)[C@H](Cc1ccc(OC(C)=O)c(OC(C)=O)c1)NC(=O)C(C)(C)N.Cl` [Example 2, 1-[(S)-2-(3,4-Diacetoxyphenyl)-1-methoxycarbonylethylcarbamoyl]-1-methyl-ethylammonium Chloride], where the note is “p.o.”, the “duration of activity (as % of L-DOPA duration of activity)” value came out at 73%. For `Cl.NC1(C(=O)N[C@@H](Cc2ccc(O)c(O)c2)C(=O)O)CC1` [Example 21, 1-[(S)-1-Carboxy-2-(3,4-dihydroxyphenyl)-ethylcarbamoyl]-cyclopropyl Ammonium Chloride] (H-[Ac3c]-[Dopa]-OH), the “duration of activity (as % of L-DOPA duration of activity)” value (p.o.) is 76%.

For `COC(=O)[C@H](Cc1ccc(O)c(O)c1)NC(=O)[C@@](C)(N)Cc1ccccc1.Cl` [Example 12, (S)-1-[(S)-2-(3,4-Dihydroxyphenyl)-1-methoxycarbonyl-ethylcarbamoyl]-1-methyl-2-phenylethylammonium Chloride] (H-[αMeF]-[Dopa]-OMe), where the note is “p.o.”, the “duration of activity (as % of L-DOPA duration of activity)” value stood at 52%. With `COC(=O)[C@H](Cc1ccc(OC(C)=O)c(OC(C)=O)c1)NC(=O)C1(N)CCCCC1.Cl` [Example 5, 1-[(S)-2-(3,4-Diacetoxyphenyl)-1-methoxycarbonylethylcarbamoyl]-cyclohexyl-ammonium Chloride], where the note is “p.o.”, the “duration of activity (as % of L-DOPA duration of activity)” value is reported as 42%. For `COC(=O)[C@H](Cc1ccc(O)c(O)c1)NC(=O)C1(N)CCCCC1.Cl` [Example 4, 1-[(S)-2-(3,4-Dihydroxy-phenyl)-1-methoxycarbonyl-ethylcarbamoyl]-cyclohexyl-ammonium Chloride] (H-[Ac6c]-[Dopa]-OMe), the “duration of activity (as % of L-DOPA duration of activity)” value (p.o.) came out at 84%. Take `COC(=O)[C@H](Cc1ccc(O)c(O)c1)NC(=O)C1(N)Cc2ccccc2C1.Cl` [Example 15, 2-[(S)-2-(3,4-Dihydroxyphenyl)-1-methoxycarbonylethylcarbamoyl]-indan-2-yl-ammonium Chloride] (H-[Aic]-[Dopa]-OMe): the “duration of activity (as % of L-DOPA duration of activity)” value (p.o.) was determined as 31%. In the case of `COC(=O)[C@H](Cc1ccc(OC(C)=O)c(OC(C)=O)c1)NC(=O)C1(N)CCCC1.Cl` [Example 8, 1-[(S)-2-(3,4-Diacetoxyphenyl)-1-methoxycarbonylethylcarbamoyl]-cyclopentyl-ammonium Chloride], under “p.o.”, the “duration of activity (as % of L-DOPA duration of activity)” value is listed as 44%.

Consider `CC(C)(N)C(=O)N[C@@H](Cc1ccc(O)c(O)c1)C(=O)OC1CCCCC1.Cl` [Example 18] (H-[Aib]-[Dopa]-OcHex), for which the “duration of activity (as % of L-DOPA duration of activity)” value (p.o.) worked out at 70%. With `COC(=O)[C@H](Cc1ccc(OC(=O)CC(C)(C)C)c(OC(=O)CC(C)(C)C)c1)NC(=O)C1(N)CCCCC1.Cl` [Example 24, 1-{(S)-2-[3,4-Bis-(3,3-dimethylbutyryloxy)-phenyl]-1-methoxycarbonyl-ethylcarbamoyl}-cyclohexylammonium Chloride], the “duration of activity (as % of L-DOPA duration of activity)” value (p.o.) is given as 36%. As for `COC(=O)[C@H](Cc1ccc(OC(C)=O)c(OC(C)=O)c1)NC(=O)C1(N)Cc2ccccc2C1.Cl` [Example 16, 2-[(S)-2-(3,4-Diacetoxyphenyl)-1-methoxycarbonylethylcarbamoyl]-indan-2-yl-ammonium Chloride], the “duration of activity (as % of L-DOPA duration of activity)” value (p.o.) is on record as 21%. For the compound `COC(=O)[C@H](Cc1ccc(OC(C)=O)c(OC(C)=O)c1)NC(=O)C1(N)CCC1.Cl` [Example 11, 1-[(S)-2-(3,4-Diacetoxyphenyl)-1-methoxycarbonylethylcarbamoyl]-cyclobutyl-ammonium Chloride], the “duration of activity (as % of L-DOPA duration of activity)” value (p.o.) amounted to 67%.
